Holding throughout (type): in vivo
Series [1] relates to barley. The series is described as follows: Post-emergence crop safety test on barley crop plants. The protocol:
(§1) Seeds of a variety of test species are sown in standard soil in pots (Lolium perenne (LOLPE), Setaria faberi (SETFA), Alopecurus myosuroides (ALOMY), Echinochloa crus-galli (ECHCG), Avena fatua (AVEFA)). After cultivation for one day (pre-emergence) or after 8 days cultivation (post-emergence) under controlled conditions in a glasshouse (at 24/16° C., day/night; 14 hours light; 65% humidity), the plants are sprayed with an aqueous spray solution derived from the formulation of the technical active ingredient in acetone/water (50:50) solution containing 0.5% Tween 20 (polyoxyethelyene sorbitan monolaurate, CAS RN 9005-64-5). Compounds are applied at […]. The test plants are then grown in a glasshouse under controlled conditions in a glasshouse (at 24/16° C., day/night; 14 hours light; 65% humidity) and watered twice daily. After 13 days for pre and post-emergence, the test is evaluated for the percentage damage caused to the plant. The biological activities are shown in the following table on a five point scale (5=80-100%; 4=60-79%; 3=40-59%; 2=20-39%; 1=0-19%).
Using procedures outlines above, wheat and barley crop plants and a weed species (SETFA) are treated post-emergence with compound A11 of the present invention or comparator compound C1 (Compound A-38 from WO2014/096289) at the application rates indicated. […]

The test system of series [2] is wheat. Put plainly: Post-emergence crop safety test on wheat crop plants. The protocol:
as §1
Using procedures outlines above, wheat and barley crop plants and a weed species (SETFA) are treated post-emergence with compound A11 of the present invention or comparator compound C1 (Compound A-38 from WO2014/096289) at the application rates indicated. The compounds were also applied to wheat in conjunction with the safener compound cloquintocet-mexyl (CQC) at 50 g/ha.

For series [3], the system named is Setaria faberi (SETFA). The series is described as follows: Post-emergence herbicidal glasshouse test, percentage damage. As to conditions: for SETFA POST percentage damage (five point scale): 250 g/h, evaluated after 13 days. The gist of the method: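 Percentage damage was scored 13 days after treatment on a five-point scale (1=0-19% to 5=80-100%). Treatments were post-emergence sprays on 8-day-old wheat, barley and SETFA plants in a glasshouse (24/16 °C day/night, 14 h light, 65% humidity), using acetone/water 50:50 with 0.5% Tween 20 at the stated rates. Wheat additionally received cloquintocet-mexyl safener at 50 g/ha.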

The test system of series [4] is Avena fatua (AVEFA). The series is described as above. Particulars: 250 g/h, evaluated after 13 days. In a few lines:
(§2)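 Each compound is sprayed at 250 g/h on pots either 1 or 8 days after sowing (pre- and post-emergence respectively). Growth under controlled glasshouse conditions, 24/16 °C day/night and 65% humidity, continues for 13 days before damage is rated on a five-point scale.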

The subject of series [5] is Echinochloa crus-galli (ECHCG). Described as above. Particulars: 250 g/h, evaluated after 13 days. The gist of the method:
as §2

Series [6] deals with Lolium perenne (LOLPE). The series is described as above. As to conditions: 250 g/h, evaluated after 13 days. The gist of the method:
as §2

For series [7], the system named is Alopecurus myosuroides (ALOMY). The description is as above. Particulars: 250 g/h, evaluated after 13 days. The gist of the method:
as §2

Series [8] relates to Setaria faberi (SETFA). The series is described as follows: Pre-emergence herbicidal glasshouse test, percentage damage. Particulars: 250 g/h, evaluated after 13 days. The gist of the method: as §2
The test system of series [9] is Avena fatua (AVEFA). The series is described as above. Particulars: 250 g/h, evaluated after 13 days. The gist of the method: as §2
Series [10] relates to Echinochloa crus-galli (ECHCG). The series is described as above. Particulars: 250 g/h, evaluated after 13 days. In a few lines: as §2
The subject of series [11] is Lolium perenne (LOLPE). The series is described as above. Particulars: 250 g/h, evaluated after 13 days. In a few lines: as §2
In series [12] the test system is Alopecurus myosuroides (ALOMY). Described as above. Particulars: 250 g/h, evaluated after 13 days. In a few lines: as §2

Structures are written as SMILES.

For `CC#Cc1cc(C)c(C2C(=O)CC3(CCN(C(=O)OC)CC3)CC2=O)c(C)c1` [Compound A11], the results for the “Barley, percentage damage” value in series [1] (rate 30) and in series [1] (rate 60) were 10% and 40%, respectively. Moreover, the “Wheat, percentage damage” value in series [2] (rate 30) is given as 10%; in series [2] (rate 60) it was 30%; in series [2] (rate 60 + CQC (safener cloquintocet-mexyl at 50 g/ha)) it was 0%. Besides, the “crop safety vis-à-vis prior art compound C1” value in series [2] (wheat and barley) is on record as “significantly improved crop safety”. The overall weed control entry in series [3] is on record as “good overall weed control”. The “SETFA, percentage damage” value in series [3] (rate 30) and in [3] (rate 60) was 100% in each case.

Turning to `CC#Cc1cc(C)c(C2=C(OC(C)=O)CC3(CCN(C(=O)C4CC4)CC3)CC2=O)c(C)c1` [Compound P29], the “SETFA POST percentage damage (five point scale)” value (shortened to “SETFA POST percentage damage”) in series [3] is reported as 5 (5=80-100%). In addition, the “AVEFA POST percentage damage (five point scale)” value (“AVEFA POST percentage damage” below) in [4] was 5 (5=80-100%). The “ECHCG POST percentage damage (five point scale)” value (from here on “ECHCG POST percentage damage”) in series [5] was 5 (5=80-100%). Further, the “LOLPE POST percentage damage (five point scale)” value (shortened to “LOLPE POST percentage damage”) in series [6] is 5 (5=80-100%). The “ALOMY POST percentage damage (five point scale)” value (“ALOMY POST percentage damage” below) in series [7] is 5 (5=80-100%). Moreover, in series [8], the “SETFA PRE percentage damage (five point scale)” value (from here on “SETFA PRE percentage damage”) is 5 (5=80-100%). Also, the “AVEFA PRE percentage damage (five point scale)” value (from here on “AVEFA PRE percentage damage”) in series [9] is on record as 5 (5=80-100%). In addition, the “ECHCG PRE percentage damage (five point scale)” value (from here on “ECHCG PRE percentage damage”) in series [10] is on record as 5 (5=80-100%). The “LOLPE PRE percentage damage (five point scale)” value (from here on “LOLPE PRE percentage damage”) in series [11] is 5 (5=80-100%). Also, the “ALOMY PRE percentage damage (five point scale)” value (from here on “ALOMY PRE percentage damage”) in series [12] is 5 (5=80-100%).

For `CC#Cc1cc(C)c(C2=C(OC(=O)OC)CC3(CCN(C(=O)c4cccnn4)CC3)CC2=O)c(C)c1` [Compound P30], the “SETFA POST percentage damage” value in series [3] is recorded as 5 (5=80-100%). The “AVEFA POST percentage damage” value in series [4] is recorded as 5 (5=80-100%). Further, in [5], the “ECHCG POST percentage damage” value is recorded as 5 (5=80-100%). For the same molecule, the “LOLPE POST percentage damage” value in series [6] is given as 5 (5=80-100%). Also, the “ALOMY POST percentage damage” value in series [7] is on record as 5 (5=80-100%). In addition, the “SETFA PRE percentage damage” value in series [8] is reported as 5 (5=80-100%). In addition, the “AVEFA PRE percentage damage” value in series [9] is recorded as 5 (5=80-100%). Also, in series [10], the “ECHCG PRE percentage damage” value is 5 (5=80-100%). Further, the “LOLPE PRE percentage damage” value in [11] is 5 (5=80-100%). In addition, in series [12], the “ALOMY PRE percentage damage” value is reported as 5 (5=80-100%).

For `CC#Cc1cc(C)c(C2=C(OC(=O)OC)CC3(CCN(C(=O)COCCOC)CC3)CC2=O)c(C)c1` [Compound P50], the “SETFA POST percentage damage” value in [3] is recorded as 5 (5=80-100%). In addition, the “AVEFA POST percentage damage” value in [4] was 5 (5=80-100%). Moreover, the “ECHCG POST percentage damage” value in [5] was 5 (5=80-100%). Besides, in series [6], the “LOLPE POST percentage damage” value is 5 (5=80-100%). Further, in series [7], the “ALOMY POST percentage damage” value was 4 (4=60-79%). Besides, in series [8], the “SETFA PRE percentage damage” value is 5 (5=80-100%). Further, the “AVEFA PRE percentage damage” value in [9] is 2 (2=20-39%). Besides, the “ECHCG PRE percentage damage” value in series [10] is recorded as 5 (5=80-100%). Moreover, the “LOLPE PRE percentage damage” value in series [11] was 4 (4=60-79%). Besides, the “ALOMY PRE percentage damage” value in series [12] is 3 (3=40-59%).

As to `CC#Cc1cc(C)c(C2=C(OC(=O)OC)CC3(CCN(C(=O)COCC)CC3)CC2=O)c(C)c1` [Compound P51], the “SETFA POST percentage damage” value in [3] is on record as 5 (5=80-100%). For the same molecule, in series [4], the “AVEFA POST percentage damage” value is 5 (5=80-100%). Besides, the “ECHCG POST percentage damage” value in series [5] was 5 (5=80-100%). For the same molecule, the “LOLPE POST percentage damage” value in [6] was 5 (5=80-100%). In addition, in series [7], the “ALOMY POST percentage damage” value is recorded as 5 (5=80-100%). Moreover, the “SETFA PRE percentage damage” value in series [8] is on record as 5 (5=80-100%). Moreover, in [9], the “AVEFA PRE percentage damage” value is reported as 5 (5=80-100%). Moreover, in [10], the “ECHCG PRE percentage damage” value was 5 (5=80-100%). Further, the “LOLPE PRE percentage damage” value in series [11] was 5 (5=80-100%). The “ALOMY PRE percentage damage” value in [12] was 5 (5=80-100%).

As to `CC#Cc1cc(C)c(C2=C(OC(=O)OCCOC)CC3(CCN(C(=O)OCCOC)CC3)CC2=O)c(C)c1` [Compound P52], the “SETFA POST percentage damage” value in [3] is recorded as 5 (5=80-100%). In [4], the “AVEFA POST percentage damage” value is listed as 5 (5=80-100%). Also, the “ECHCG POST percentage damage” value in series [5] was 5 (5=80-100%). In addition, the “LOLPE POST percentage damage” value in [6] is listed as 5 (5=80-100%). Besides, in series [7], the “ALOMY POST percentage damage” value is listed as 5 (5=80-100%). In [8], the “SETFA PRE percentage damage” value was 5 (5=80-100%). For the same molecule, the “AVEFA PRE percentage damage” value in series [9] is given as 5 (5=80-100%). In addition, the “ECHCG PRE percentage damage” value in series [10] is 5 (5=80-100%). Also, the “LOLPE PRE percentage damage” value in [11] is given as 5 (5=80-100%). Further, the “ALOMY PRE percentage damage” value in [12] is on record as 5 (5=80-100%).

Consider `CC#Cc1cc(C)c(C2=C(OC(=O)OC)CC3(CCN(C(=O)NC(C)=O)CC3)CC2=O)c(C)c1` [Compound P53], for which the “SETFA POST percentage damage” value in [3] was 5 (5=80-100%). In addition, the “AVEFA POST percentage damage” value in [4] was 5 (5=80-100%). The “ECHCG POST percentage damage” value in [5] was 5 (5=80-100%). Besides, the “LOLPE POST percentage damage” value in [6] is 5 (5=80-100%). Also, the “ALOMY POST percentage damage” value in [7] is 5 (5=80-100%). Further, the “SETFA PRE percentage damage” value in series [8] was 5 (5=80-100%). Further, the “AVEFA PRE percentage damage” value in [9] was 5 (5=80-100%). Also, in series [10], the “ECHCG PRE percentage damage” value is given as 5 (5=80-100%). In [11], the “LOLPE PRE percentage damage” value was 4 (4=60-79%). In addition, the “ALOMY PRE percentage damage” value in [12] is 4 (4=60-79%).

As for `CC#Cc1cc(C)c(C2=C(OC(=O)C(C)(C)C)CC3(CCN(C(=O)N(C)C(=O)C(C)(C)C)CC3)CC2=O)c(C)c1` [Compound P54], in [3], the “SETFA POST percentage damage” value is on record as 5 (5=80-100%). In [4], the “AVEFA POST percentage damage” value is on record as 4 (4=60-79%). In addition, the “ECHCG POST percentage damage” value in series [5] is recorded as 5 (5=80-100%). Also, in series [6], the “LOLPE POST percentage damage” value is 5 (5=80-100%). In addition, the “ALOMY POST percentage damage” value in series [7] was 5 (5=80-100%). In addition, the “SETFA PRE percentage damage” value in series [8] was 5 (5=80-100%). The “AVEFA PRE percentage damage” value in series [9] is reported as 4 (4=60-79%). For the same molecule, the “ECHCG PRE percentage damage” value in series [10] is listed as 5 (5=80-100%). In addition, the “LOLPE PRE percentage damage” value in series [11] was 5 (5=80-100%). Also, the “ALOMY PRE percentage damage” value in series [12] was 4 (4=60-79%).
